Each structure is given as a SMILES string. Where “and” joins values, the source holds several entries; their conditions need not be identical. Identical values can stand only once. Like-named read-outs stand apart in the source and are kept apart here.

The assay deals with HIV-1 protease (Human immunodeficiency virus type 1 group M subtype B, UniProt P04585). Description: biochemical. As to conditions: for inhibition at 1 µM: read-out: HIV-1 Protease % Inhib, dose 1.000 uM; for inhibition at 10 µM: read-out: HIV-1 Protease % Inhib, dose 10.000 uM; for inhibition at 100 µM: read-out: HIV-1 Protease % Inhib, dose 100.000 uM. The procedure:
The HIV protease screening assay is based on fluorescently labeled substrate which can be resolved from nonlabeled cleavage product using special beads coated with streptavidin. The substrate is biotinylated at the amino terminal arginine and fluorescently labeled with fluorescein isothiocynate (FITC) at the carboxyl terminal lysine. This assay has been employed to detect novel, nonpeptidic inhibitors of HIV-1 protease. Substrate (20 μl of 0.2 μM), sample (10 μl of desired concentration), and enzyme (10 μl of 0.1 μM) are added to a 96 well pandex plate. The assay is run in 0.1M sodium acetate buffer at pH 5.5 in the presence of 1.0M sodium chloride and 0.05% NP-40 with incubated in the dark for one hour at room temperature. Strepavidin coated polystyrene beads {40 μl of 0.1% (w/v)} are added and the plate is incubated in the dark for an additional half hour. The labeled cleavage product is separated from the unreacted substrate via filtration and is read on the Idexx screen machine. The data are analyzed by appropriate computer algorithms to ascertain percent inhibition values.

In the case of `C=CCOc1ccccc1C(CC)c1c(O)c2ccccc2oc1=O` (stereo not shown) [Example 69, 3-(1'-(2-Allyloxyphenyl)propyl)-4-hydroxycoumarin], the inhibition at 1 µM is less than 10%, the inhibition at 10 µM is 20.6% and the inhibition at 100 µM was 92.2%.

As for `CCC(c1ccccc1OC)c1c(O)c2ccccc2oc1=O` (stereo not shown) [Example 70, 3-(1'-(2-Methoxyphenyl)propyl)-4-hydroxycoumarin], the inhibition at 1 µM was less than 10%, the inhibition at 10 µM amounted to 10.2% and the inhibition at 100 µM came out at 72.2%.

For the compound `CCC(c1cccc(Br)c1)c1c(O)c2ccccc2oc1=O` (stereo not shown) [Example 71, 3-(1'-(3-Bromophenyl)propyl)-4-hydroxycoumarin], the inhibition at 1 µM is less than 10%, the inhibition at 10 µM came out at 15% and the inhibition at 100 µM was found to be 80%.

With `CCC(c1ccc(OC(C)=O)cc1)c1c(O)c2ccccc2oc1=O` (stereo not shown) [Example 72, 3-(1'-(4-Acetoxyphenyl)propyl)4-hydroxycoumarin], the inhibition at 1 µM was less than 10%, the inhibition at 10 µM is 18.9% and the inhibition at 100 µM turned out to be 92.3%.

Turning to `CCC(c1ccccc1OC(C)=O)c1c(O)c2ccccc2oc1=O` (stereo not shown) [Example 73, 3-(1'-(2-Acetoxyphenyl)propyl)-4-hydroxycoumarin], the inhibition at 1 µM is less than 10%, the inhibition at 10 µM turned out to be 29.9% and the inhibition at 100 µM came to 96.7%.

For the compound `C=CC(c1ccccc1)c1c(O)c2ccccc2oc1=O` (stereo not shown) [Example 74, 4-Hydroxy-3-(1-phenyl-2-propenyl)-coumarin], the inhibition at 1 µM is less than 10%, the inhibition at 10 µM was less than 10% and the inhibition at 100 µM came to 82.3%.

One may read the IC50 as the concentration that gives 50% inhibition. Take `O=c1oc2ccccc2c(O)c1C1CCCCc2ccccc21` (stereo not shown) [Example 75, 4-Hydroxy-3-(5,6,7,8,9-tetrahydro-5H-benzocycloheptenyl)-coumarin]: the inhibition at 1 µM amounted to 14.5%, the inhibition at 10 µM was found to be 72.7% and the inhibition at 100 µM stood at 96.6%. Besides, the half-inhibitory concentration (IC50) (HIV-1 Protease IC50) came out at 2.4 µM.

For `COc1ccc2c(c1)CCCC2c1c(O)c2ccccc2oc1=O` (stereo not shown) [Example 76, 4-Hydroxy-3-(1-(6-methoxy)-1,2,3,4-tetrahydronaphthyl)-coumarin], the inhibition at 1 µM is less than 10%, the inhibition at 10 µM was 47.8% and the inhibition at 100 µM was determined as 96.5%.

Turning to `COc1ccc2c(c1)C(c1c(O)c3ccccc3oc1=O)CCC2` (stereo not shown) [Example 77, 4-Hydroxy-3-(1-(7-methoxy)-1,2,3,4-tetrahydronaphthyl)-coumarin], the inhibition at 1 µM was less than 10%, the inhibition at 10 µM amounted to 57.8% and the inhibition at 100 µM was found to be 92.5%.

As to `C=CCOc1ccc2c(O)c(C(CC)c3ccccc3)c(=O)oc2c1` (stereo not drawn) [Example 78, Coumarin, 7-(allyloxy)-3-(α-ethylbenzyl)-4-hydroxy-], the inhibition at 1 µM is less than 10%, the inhibition at 10 µM was found to be 65.7% and the inhibition at 100 µM was found to be 83.5%. For the same compound, for the setting “HIV-1 Protease IC50”, the concentration for half-maximal inhibition (IC50) amounted to 8.4 µM.

For the compound `CCC(c1cccc(NC(=O)CCc2c[nH]c3ccccc23)c1)c1c(O)c2ccccc2oc1=O` (stereo not drawn) [Example 79, Coumarin, 3-[α-ethyl-[[[2-(indol-3-yl)ethyl]carbonyl]amino]benzyl]-4-hydroxy-], the inhibition at 1 µM is less than 10%, the inhibition at 10 µM came to 61% and the inhibition at 100 µM is 80.9%. Besides, the half-inhibitory concentration (IC50) (read-out: HIV-1 Protease IC50) is 13.1 µM.

Turning to `COc1ccc2c(O)c(C(C3CC3)C3CC3)c(=O)oc2c1` [Example 80, Coumarin, 3-[bis(cyclopropyl)methyl]-4-hydroxy-7-methoxy-], the inhibition at 1 µM is less than 10%, the inhibition at 10 µM turned out to be 62.6% and the inhibition at 100 µM turned out to be 102%. This compound showed an IC50 (HIV-1 Protease IC50) of 8.5 µM.

Regarding `CCC(c1ccccc1)c1c(O)c2ccc(OC(C)C)cc2oc1=O` (stereo not drawn) [Example 81, Coumarin, 3-(α-ethylbenzyl)-4-hydroxy-7-(1-methylethoxy)-], the inhibition at 1 µM is 62%, the inhibition at 10 µM is 75.6% and the inhibition at 100 µM amounted to 85.3%. Under “HIV-1 Protease IC50”, the half-maximal inhibitory concentration (IC50) amounted to 3.7 µM.

For the compound `CCOc1ccc2c(O)c(C(CC)c3ccccc3)c(=O)oc2c1` (stereo not drawn) [Example 82, Coumarin, 7-ethoxy-3-(α-ethylbenzyl)-4-hydroxy-], the inhibition at 1 µM turned out to be 30.9%, the inhibition at 10 µM amounted to 69.7% and the inhibition at 100 µM was determined as 89%. The compound further registered an IC50 (HIV-1 Protease IC50) of 0.9 µM.

Turning to `CCOC(=O)C(CC)c1c(O)c2ccccc2oc1=O` (stereo not shown) [Example 83, Butanoic acid, 2-(4-hydroxy-2-oxo-2H-1-benzopyran-3-yl)-, ethyl ester], the inhibition at 1 µM is less than 10%, the inhibition at 10 µM is less than 10% and the inhibition at 100 µM was 50.1%.

As for `CCC(Cc1c(O)c2ccccc2oc1=O)c1ccccc1` (stereo not shown) [Example 84, Coumarin, 4-hydroxy-3-(2-phenylbutyl)-], the inhibition at 1 µM was less than 10% and the inhibition at 10 µM was 30.2%.

`CCC(c1ccc(O)cc1)c1c(O)c2ccccc2oc1=O` (stereo not shown) [Example 85, Coumarin, 4-hydroxy-3-[1-(4-hydroxyphenyl)propyl]-]: the inhibition at 1 µM is less than 10%, the inhibition at 10 µM came out at 31.6% and the inhibition at 100 µM came out at 100%.

Take `CCC(c1ccccc1)c1c(O)c2ccc(C(F)(F)F)cc2oc1=O` (stereo not shown) [Example 86, Coumarin, 7-trifluoromethyl-4-hydroxy-3-(1-phenylpropyl)-]: the inhibition at 1 µM is 10.5%, the inhibition at 10 µM amounted to 56.9% and the inhibition at 100 µM was found to be 95.8%.

In the case of `CCC(c1ccccc1)c1c(O)c2cc(F)ccc2oc1=O` (stereo not shown) [Example 87, Coumarin, 6-fluoro-4-hydroxy-3-(1-phenylpropyl)-], the inhibition at 1 µM is less than 10%, the inhibition at 10 µM was 20.6% and the inhibition at 100 µM worked out at 79%.

With `CCC(c1ccccc1)c1c(O)c2ccc(OC)cc2oc1=O` (stereo not shown) [Example 88, Coumarin, 4-hydroxy-7-methoxy-3-(. 1-phenylpropyl)-], the inhibition at 1 µM turned out to be 80% and the inhibition at 10 µM was 108%. Also, the half-inhibitory concentration (IC50) (HIV-1 Protease IC50) is 1.52 µM and 1.6 µM and 2 µM. Besides, the “HIV-1 Protease % Inhib” value (dose 12.500 uM) came out at 80.8%. For the setting “dose 100.000 uM”, the “HIV-1 Protease % Inhib” value was 117.82% and 92% and 93.5%. In addition, the inhibition at 1.56 µM (read-out: HIV-1 Protease % Inhib, dose 1.560 uM) stood at 49.9%. For the same compound, the inhibition at 1.57 µM (read-out: HIV-1 Protease % Inhib, dose 1.570 uM) was 41.7%. The inhibition at 12.5 µM (read-out: HIV-1 Protease % Inhib, dose 12.500 uM) came out at 89.2%.

In the case of `CCC(c1ccccc1)c1c(O)c2cc(OC)ccc2oc1=O` (stereo not shown) [Example 89, Coumarin, 4-hydroxy-6-methoxy-3-(1-phenylpropyl)-], the inhibition at 1 µM is less than 10%, the inhibition at 10 µM was 10.3% and the inhibition at 100 µM came to 52%.

Consider `CCC(c1ccccc1)c1c(O)c2ccc(C)cc2oc1=O` (stereo not shown) [Example 90, Coumarin, 4-hydroxy-7-methyl-3-(1-phenylpropyl)-], for which the inhibition at 1 µM is less than 10%, the inhibition at 10 µM came to 29.7% and the inhibition at 100 µM came to 89.2%.

Turning to `CCC(c1ccc(Br)cc1)c1c(O)c2ccccc2oc1=O` (stereo not shown) [Example 91, Coumarin, 3-[1-(4-bromophenyl)propyl]-4-hydroxy-], the inhibition at 1 µM is less than 10% and the inhibition at 10 µM was 38.4%. In addition, the “HIV-1 Protease % Inhib” value (dose 100.000 uM) is 94.41% and 71.61%.

Turning to `CCC(c1ccccc1)c1c(O)c2ccc(Cl)cc2oc1=O` (stereo not shown) [Example 92, Coumarin, 7-chloro-4-hydroxy-3-(1-phenylpropyl)-], the inhibition at 1 µM is less than 10%, the inhibition at 10 µM stood at 67.8% and the inhibition at 100 µM came to 113%.

Take `CCC(c1ccccc1)c1c(O)c2ccc(O)cc2oc1=O` (stereo not shown) [Example 93, Coumarin, 4,7-dihydroxy-3-(1-phenylpropyl)-]: the inhibition at 1 µM amounted to 23.2%, the inhibition at 10 µM turned out to be 79.4% and the inhibition at 100 µM came out at 109%. Also, half-maximal inhibition (HIV-1 Protease IC50) (IC50) was put at 20.6 µM. The “HIV-1 Protease % Inhib” value (dose 100.000 uM) came out at 91.7%.

For `CCC(c1ccc(OC)cc1)c1c(O)c2ccccc2oc1=O` (stereo not shown) [Example 94, Coumarin, 4-hydroxy-3-[1-(4-methoxyphenyl)propyl]-], the inhibition at 1 µM was less than 10%, the inhibition at 10 µM was 44.7% and the inhibition at 100 µM was determined as 96.4%. Further, the “HIV-1 Protease % Inhib” value (dose 100.000 uM) was 82.45%.

`CCC(c1ccccc1)c1c(O)c2cc(O)ccc2oc1=O` (stereo not shown) [Example 95, Coumarin, 4,6-dihydroxy-3-(1-phenylpropyl)-]: the inhibition at 1 µM is less than 10%, the inhibition at 10 µM turned out to be 34.7% and the inhibition at 100 µM came out at 79.6%.

Consider `CCC(c1ccccc1)c1c(O)c2cc(N)ccc2oc1=O` (stereo not shown) [Example 96, Coumarin, 6-amino-4-hydroxy-3-(1-phenylpropyl)-], for which the inhibition at 1 µM is less than 10%, the inhibition at 10 µM was less than 10% and the inhibition at 100 µM is 48.7%.

For the compound `CCCC(c1cccc(C)c1)c1c(O)c2ccccc2oc1=O` (stereo not shown) [Example 97, Coumarin, 4-hydroxy-3-[1-(3-methylphenyl)butyl]-], the inhibition at 1 µM is less than 10%, the inhibition at 10 µM is 29.9% and the inhibition at 100 µM was 78.2%.

Regarding `CCC(c1cccc(C#N)c1)c1c(O)c2ccccc2oc1=O` (stereo not shown) [Example 98, Coumarin, 3-[1-(3-cyanophenyl)propyl]-4-hydroxy-], the inhibition at 1 µM is less than 10%, the inhibition at 10 µM was less than 10% and the inhibition at 100 µM worked out at 74.5%.

For the origin of these results see patent US5686486A, “4-hydroxy-benzopyran-2-ones and 4-hydroxy-cycloalkyl[b]pyran-2-ones useful to treat retroviral infections” (priority 1995, dated 1997).
